This note sets out measurements from patent US10689399B2, “Substituted 3,4,5,6,8,10,14,14a-octahydro-2h-2,6-methanopyrido[1′,2′:4,5]pyrazino[2,1-b][1,3]oxazocines and methods for treating viral infections” (Gilead Sciences, Inc., priority 2012, dated 2020).

Structures are written as SMILES.

The subject of this assay is HIV-IIIb. Kind of assay: Antiviral assay in MT4 cells. Format: cell-based. The note with it: Human immunodeficiency virus 1, IIIB, MT4, 120 h, MT4 cells infected with HIV-IIIb, 5 days, CellTiter-Glo; read-out: EC50 nM in MT-4. As to the method: For the antiviral assay utilizing MT4 cells, 0.4 μL of 189X test concentration of 3-fold serially diluted compound in DMSO was added to 40 μL of cell growth medium (RPMI 1640, 10% FBS, 1% penicilline/Streptomycine, 1% L-Glutamine, 1% HEPES) in each well of 384-well assay plates (10 concentrations) in quidruplicate.
1 mL aliquots of 2×10^6 MT4 cells are pre-infected for 1 and 3 hours respectively at 37° C. with 25 μL (MT4) or of either cell growth medium (mock-infected) or a fresh 1:250 dilution of an HIV-IIIb concentrated ABI stock (0.004 m.o.i. for MT4 cells). Infected and uninfected cells are diluted in cell growth medium and 35 μL of 2000 (for MT4) cells is added to each well of the assay plates.
Assay plates were then incubated in a 37° C. incubator. After 5 days of incubation, 25 μL of 2× concentrated CellTiter-Glo™ Reagent (catalog # G7573, Promega Biosciences, Inc., Madison, Wis.) was added to each well of the assay plate. Cell lysis was carried out by incubating at room temperature for 2-3 minutes, and then chemiluminescence was read using the Envision reader (PerkinElmer).
As to `O=C(NCc1c(F)cc(F)cc1F)c1cn2c(c(O)c1=O)C(=O)N1[C@@H]3C[C@@H](C(F)C3F)[C@@H]1C2` (stereo partly drawn) [Compound 103, (1R,4R,12aR)-2,3-difluoro-7-hydroxy-6,8-dioxo-N-(2,4,6-trifluorobenzyl)-1,2,3,4,6,8,12,12a-octahydro-1,4-methanodipyrido[1,2-a:1′,2′-d]pyrazine-9-carboxamide], the EC50 stood at 10.3 nM.
Consider `O=C(NCc1ccc(F)c(Cl)c1F)c1cn2c(c(O)c1=O)C(=O)N1[C@H]3CC[C@H](C3)[C@H]1C2` [Compound 61, (1R,4S,12aS)—N-(3-chloro-2,4-difluorobenzyl)-7-hydroxy-6,8-dioxo-1,2,3,4,6,8,12,12a-octahydro-1,4-methanodipyrido[1,2-a:1′,2′-d]pyrazine-9-carboxamide], for which the EC50 was found to be 1.8 nM.
`O=C(NCc1ccc(F)cc1C(F)(F)F)c1cn2c(c(O)c1=O)C(=O)N1[C@H]3CC[C@H](C3)[C@@H]1C2` [Compound 67, (1R,4S,12aR)—N-(4-fluoro-2-(trifluoromethyl)benzyl)-7-hydroxy-6,8-dioxo-1,2,3,4,6,8,12,12a-octahydro-1,4-methanodipyrido[1,2-a:1′,2′-d]pyrazine-9-carboxamide]: the EC50 stood at 10.7 nM.
The value for `O=C(NCc1ccc(F)cc1Cl)c1cn2c(c(O)c1=O)C(=O)N1[C@H]3CC[C@H](C3)[C@@H]1C2` [Compound 68, (1R,4S,12aR)—N-(2-chloro-4-fluorobenzyl)-7-hydroxy-6,8-dioxo-1,2,3,4,6,8,12,12a-octahydro-1,4-methanodipyrido[1,2-a:1′,2′-d]pyrazine-9-carboxamide] was 2.7 nM; that for `O=C(NC1(c2ccc(F)cc2F)CC1)c1cn2c(c(O)c1=O)C(=O)N1C(C2)O[C@@H]2CC[C@H]1C2` (stereo partly drawn) [Compound 31, (2R,5S)—N-(1-(2,4-difluorophenyl)cyclopropyl)-8-hydroxy-7,9-dioxo-2,3,4,5,7,9,13,13a-octahydro-2,5-methanopyrido[1′,2′:4,5]pyrazino[2,1-b][1,3]oxazepine-10-carboxamide] was 9 nM.
The figure for `O=C(NCc1c(F)cc(F)cc1F)c1cn2c(c(O)c1=O)C(=O)N1[C@H](C2)[C@H]2C[C@H](F)[C@@H]1C2` [Compound 81, (1R,3S,4S,12aS)-3-fluoro-7-hydroxy-6,8-dioxo-N-(2,4,6-trifluorobenzyl)-1,2,3,4,6,8,12,12a-octahydro-1,4-methanodipyrido[1,2-a:1′,2′-d]pyrazine-9-carboxamide] is 1.9 nM.
Consider `O=C(NCc1cccc(Cl)c1)c1cn2c(c(O)c1=O)C(=O)N1[C@H]3CC[C@H](C3)[C@@H]1C2` [Compound 72, (1R,4S,12aR)—N-(3-chlorobenzyl)-7-hydroxy-6,8-dioxo-1,2,3,4,6,8,12,12a-octahydro-1,4-methanodipyrido[1,2-a:1′,2′-d]pyrazine-9-carboxamide], for which the EC50 is 4.3 nM.
Regarding `O=C(NCc1cc(F)c(F)cc1F)c1cn2c(c(O)c1=O)C(=O)N1[C@H]3CC[C@H](C3)O[C@@H]1C2` [Compound 64, (2R,5S,13aR)-8-hydroxy-7,9-dioxo-N-(2,4,5-trifluorobenzyl)-2,3,4,5,7,9,13,13a-octahydro-2,5-methanopyrido[1′,2′:4,5]pyrazino[2,1-b][1,3]oxazepine-10-carboxamide], the EC50 came out at 3.5 nM.
The value for `O=C(NCc1cc(Cl)c(F)cc1F)c1cn2c(c(O)c1=O)C(=O)N1[C@H]3CC[C@H](C3)O[C@@H]1C2` [Compound 65, (2R,5 S,13aR)—N-(5-chloro-2,4-difluorobenzyl)-8-hydroxy-7,9-dioxo-2,3,4,5,7,9,13,13a-octahydro-2,5-methanopyrido[1′,2′: 4,5]pyrazino[2,1-b][1,3]oxazepine-10-carboxamide] was 2.4 nM; that for `O=C(NCc1ccc(Cl)c(F)c1)c1cn2c(c(O)c1=O)C(=O)N1[C@@H]3CC[C@@H](C3)O[C@H]1C2` [Compound 26, (2 S,5R,13aS)—N-(4-chloro-3-fluorobenzyl)-8-hydroxy-7,9-dioxo-2,3,4,5,7,9,13,13a-octahydro-2,5-methanopyrido[1′,2′: 4,5]pyrazino[2,1-b][1,3]oxazepine-10-carboxamide] was 10.3 nM; that for `O=C(NCc1ccc(F)c(F)c1)c1cn2c(c(O)c1=O)C(=O)N1[C@@H]3CC[C@@H](C3)O[C@H]1C2` [Compound 18, (2S,5R,13aS)—N-(3,4-difluorobenzyl)-8-hydroxy-7,9-dioxo-2,3,4,5,7,9,13,13a-octahydro-2,5-methanopyrido[1′,2′:4,5]pyrazino[2,1-b][1,3]oxazepine-10-carboxamide] was 4.1 nM.
Take `O=C(NCc1ccc(F)cc1F)c1cn2c(c(O)c1=O)C(=O)N1C(C2)[N@@]2CCC[C@@H]1C2` (stereo partly drawn) [Compound 20, (1S,5R)—N-(2,4-difluorobenzyl)-8-hydroxy-7,9-dioxo-2,3,4,5,7,9,13,13a-octahydro-1,5-methanopyrido[1′,2′:4,5]pyrazino[1,2-a][1,3]diazepine-10-carboxamide]: the EC50 came to 3.3 nM.
On to `O=C(NCc1ccc(F)c(Cl)c1F)c1cn2c(c(O)c1=O)C(=O)N1[C@@H]3C[C@H]([C@@H]1C2)C(F)(F)C3` [Compound 58, (1R,4R,12aR)—N-(3-chloro-2,4-difluorobenzyl)-2,2-difluoro-7-hydroxy-6,8-dioxo-1,2,3,4,6,8,12,12a-octahydro-1,4-methanodipyrido[1,2-a:1′,2′-d]pyrazine-9-carboxamide], for which the concentration for a half-maximal effect (EC50) was determined as 1.5 nM.
The value for `O=C(NCc1ccc(F)cc1F)c1cn2c(c(O)c1=O)C(=O)N1[C@H]3CC[C@H](CC3)[C@H]1C2` [Compound 100, (1R,4R,12aS)—N-(2,4-difluorobenzyl)-7-hydroxy-6,8-dioxo-1,2,3,4,6,8,12,12a-octahydro-1,4-ethanodipyrido[1,2-a:1′,2′-d]pyrazine-9-carboxamide] was 2.2 nM; that for `O=C(NCc1c(F)cc(F)cc1F)c1cn2c(c(O)c1=O)C(=O)N1[C@H]3C[C@H](C3)[C@H]1C2` (single isomer, unassigned) [Compound 96] was 2.6 nM; that for `O=C(NCc1c(F)cc(F)cc1F)c1cn2c(c(O)c1=O)C(=O)N1[C@H]3C[C@H](C3)[C@@H]1C2` (single isomer, unassigned) [Compound 97] was 2.1 nM.
With `O=C(NCc1c(F)cc(F)cc1F)c1cn2c(c(O)c1=O)C(=O)N1[C@H]3CC[C@H](CC3)[C@H]1C2` [Compound 101, (1R,4R,12aS)-7-hydroxy-6,8-dioxo-N-(2,4,6-trifluorobenzyl)-1,2,3,4,6,8,12,12a-octahydro-1,4-ethanodipyrido[1,2-a:1′,2′-d]pyrazine-9-carboxamide], the EC50 was 2.1 nM.
The value for `C[C@H]1CO[C@@H]2Cn3cc(C(=O)NC4(c5ccc(F)cc5F)CC4)c(=O)c(O)c3C(=O)N12` [Compound 37, (3S,11aR)—N-(1-(2,4-difluorophenyl)cyclopropyl)-6-hydroxy-3-methyl-5,7-dioxo-2,3,5,7,11,11a-hexahydrooxazolo[3,2-a]pyrido[1,2-d]pyrazine-8-carboxamide] was 10.2 nM; that for `C[C@@H](NC(=O)c1cn2c(c(O)c1=O)C(=O)N1[C@@H]3CC[C@@H](C3)O[C@H]1C2)c1ccc(F)cc1F` [Compound 11, (2S,5R,13aS)—N—((R)-1-(2,4-difluorophenyl)ethyl)-8-hydroxy-7,9-dioxo-2,3,4,5,7,9,13,13a-octahydro-2,5-methanopyrido[1′,2′: 4,5]pyrazino[2,1-b][1,3]oxazepine-10-carboxamide] was 4.9 nM.
The figure for `O=C(NCc1c(F)cc(F)cc1F)c1cn2c(c(O)c1=O)C(=O)N1[C@@H]3C[C@H]([C@@H]1C2)C(F)(F)C3` [Compound 57, (1R,4R,12aR)-2,2-difluoro-7-hydroxy-6,8-dioxo-N-(2,4,6-trifluorobenzyl)-1,2,3,4,6,8,12,12a-octahydro-1,4-methanodipyrido[1,2-a:1′,2′-d]pyrazine-9-carboxamide] is 2.3 nM; for `O=C(NCc1ccccc1)c1cn2c(c(O)c1=O)C(=O)N1[C@H]3CC[C@H](C3)[C@@H]1C2` [Compound 94, (1R,4S,12aR)—N-benzyl-7-hydroxy-6,8-dioxo-1,2,3,4,6,8,12,12a-octahydro-1,4-methanodipyrido[1,2-a:1′,2′-d]pyrazine-9-carboxamide] it is 11.5 nM.
Regarding `O=C(NCc1c(Cl)ccc(Cl)c1F)c1cn2c(c(O)c1=O)C(=O)N1[C@H]3CC[C@H](C3)[C@@H]1C2` [Compound 71, (1R,4S,12aR)—N-(3,6-dichloro-2-fluorobenzyl)-7-hydroxy-6,8-dioxo-1,2,3,4,6,8,12,12a-octahydro-1,4-methanodipyrido[1,2-a:1′,2′-d]pyrazine-9-carboxamide], the EC50 worked out at 2.6 nM.
The value for `O=C(NCc1c(F)cc(F)cc1F)c1cn2c(c(O)c1=O)C(=O)N1[C@H]3CC[C@H](C3)O[C@@H]1C2` [Compound 42, (2R,5S,13aR)-8-hydroxy-7,9-dioxo-N-(2,4,6-trifluorobenzyl)-2,3,4,5,7,9,13,13a-octahydro-2,5-methanopyrido[1′,2′:4,5]pyrazino[2,1-b][1,3]oxazepine-10-carboxamide] was 2.5 nM; that for `O=C(NCc1ccc(Cl)cc1F)c1cn2c(c(O)c1=O)C(=O)N1[C@@H]3CC[C@@H](C3)O[C@H]1C2` [Compound 17, (2 S,5R,13aS)—N-(4-chloro-2-fluorobenzyl)-8-hydroxy-7,9-dioxo-2,3,4,5,7,9,13,13a-octahydro-2,5-methanopyrido[1′,2′:4,5]pyrazino[2,1-b][1,3]oxazepine-10-carboxamide] was 5.9 nM.
